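Cultured in 96-well plates, cells were exposed to test compound for 48 hours across five concentrations. Abbreviation: GI50, concentration required for 50% inhibition of growth. At the TGI there is no net growth.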
How the values were obtained:
Experiment in all cases: DTP human tumour cell line panel, 48 h
A498 renal = system: A498 renal
HCC-2998 colon = system: HCC-2998 colon
HCT-15 colon = system: HCT-15 colon
MDA-MB-435 = system: MDA-MB-435
OVCAR-8 ovarian = system: OVCAR-8 ovarian
RPMI-8226 leukemia = system: RPMI-8226 leukemia
SK-MEL-2 melanoma = system: SK-MEL-2 melanoma
SNB-19 CNS = system: SNB-19 CNS
SR leukemia = system: SR leukemia
SW-620 colon = system: SW-620 colon

| SMILES | TGI (A498 renal) [µM] | TGI (HCC-2998 colon) [µM] | TGI (HCT-15 colon) [µM] | TGI (MDA-MB-435) [µM] | TGI (OVCAR-8 ovarian) [µM] | TGI (RPMI-8226 leukemia) [µM] | TGI (SK-MEL-2 melanoma) [µM] | TGI (SNB-19 CNS) [µM] | TGI (SR leukemia) [µM] | TGI (SW-620 colon) [µM] | GI50 (A498 renal) [µM] | GI50 (HCC-2998 colon) [µM] | GI50 (HCT-15 colon) [µM] | GI50 (MDA-MB-435) [µM] | GI50 (OVCAR-8 ovarian) [µM] | GI50 (RPMI-8226 leukemia) [µM] | GI50 (SK-MEL-2 melanoma) [µM] | GI50 (SNB-19 CNS) [µM] | GI50 (SR leukemia) [µM] | GI50 (SW-620 colon) [µM] |
| --- | --- | --- | --- | --- | --- | --- | --- | --- | --- | --- | --- | --- | --- | --- | --- | --- | --- | --- | --- | --- |
| CN(C)c1ccc(/C=C/C(=O)N[C@@H]2C(=O)N3[C@@H]2SC(C)(C)[C@@H]3C(=O)O)cc1 | > 100 | > 100 | > 100 | > 100 | > 100 | > 100 | > 100 | > 100 | > 100 | > 100 | – | – | – | – | – | – | – | – | – | – |
| O=C1C=C2CCC[C@H]3OC(=O)C[C@@]23CC1 | > 100 | > 100 | > 100 | > 100 | – | > 100 | > 100 | > 100 | > 100 | > 100 | – | – | – | – | – | – | – | – | – | – |
| Nc1cccc(S(=O)(=O)Nc2nnc(S(N)(=O)=O)s2)c1 | > 100 | > 100 | > 100 | > 100 | > 100 | > 100 | > 100 | > 100 | > 100 | > 100 | – | – | – | – | – | – | – | – | – | – |
| O=C1CC(C(OCc2ccccc2)C(OCc2ccccc2)C(COCc2ccccc2)OCc2ccccc2)CC(=O)N1 (stereo not given) | > 100 | > 100 | > 100 | > 100 | > 100 | > 100 | – | > 100 | > 100 | > 100 | – | – | – | – | – | – | – | – | – | – |
| O=C1CC(C(CC(=O)c2ccccc2)c2ccccc2)C(=O)c2ccccc2N1 (stereo not given) | > 100 | > 100 | 94.9 | > 100 | > 100 | > 100 | 41.4 | > 100 | > 100 | > 100 | – | – | – | – | – | – | – | – | – | – |
| [O-][n+]1c(CN2CCCCC2)nc2cccc3c2c1-c1ccccc1-3 | 38.3 | 31.8 | > 100 | 68 | 98.2 | > 100 | 43.7 | 89.4 | > 100 | > 100 | – | – | – | – | – | – | – | – | – | – |
| OCC(CCc1ccccc1I)C1=CCC2(CC1)OCCO2 (stereo not given) | 55.9 | 43.4 | 54.7 | 30.7 | 43.1 | > 100 | 51 | 37.7 | > 100 | 61.5 | – | – | – | – | – | – | – | – | – | – |
| Cc1ccc(NC2=NCCO2)c2c1CCC2 | > 100 | 74.6 | > 100 | 46.2 | > 100 | > 100 | 48.9 | > 100 | 53.3 | > 100 | – | – | – | – | – | – | – | – | – | – |
| CCOc1ccc(N=NC2C(=O)N(C(=O)CC(=O)Nc3ccccc3)N=C2C)cc1 (stereo not given) | > 100 | > 100 | > 100 | 23.8 | > 100 | – | > 100 | > 100 | > 100 | > 100 | – | – | – | – | – | – | – | – | – | – |
| N#C/C(=C\c1ccc([N+](=O)[O-])s1)c1nc2cc(Cl)ccc2s1 | > 100 | 6.8 | 0.622 | 3.19 | 69.2 | 3.26 | 3.7 | > 100 | > 100 | 2.09 | 3.56 | 2.31 | 0.246 | 1.65 | 0.555 | 0.675 | 1.25 | 1.58 | 0.323 | 0.354 |
| CCCCCCCCCC(=O)N[C@@H](c1ccco1)[C@@H](O)C(=O)O[C@H]1C[C@@]2(O)[C@@H](OC(=O)c3ccccc3)[C@@H]3[C@]4(OC(C)=O)CO[C@@H]4C[C@H](O)[C@@]3(C)C(=O)[C@H](OC(C)=O)C(=C1C)C2(C)C | 10.3 | 0.736 | 8.73 | 0.0345 | 11 | 0.0483 | – | > 30.5 | 10 | > 50 | – | – | – | – | – | – | – | – | – | – |
| Nc1nccc(NCC2(CO)CCC2)n1 | > 100 | > 100 | > 100 | > 100 | > 100 | > 100 | > 100 | – | > 100 | > 100 | – | – | – | – | – | – | – | – | – | – |
| CCOC(=O)NNC(=O)NCc1ccccc1CNC(=O)NNC(=O)OCC | > 100 | > 100 | > 100 | > 100 | > 100 | > 100 | > 100 | > 100 | > 100 | > 100 | – | – | – | – | – | – | – | – | – | – |
| COC(=O)[C@@](C)(COC(=O)C(C)(C)C)NC(=O)OC(C)(C)C | > 100 | > 100 | > 100 | > 100 | > 100 | > 100 | > 100 | > 100 | > 100 | > 100 | – | – | – | – | – | – | – | – | – | – |
| O=c1[nH]c(=O)n(COCCO)c2ccsc12 | > 100 | > 100 | > 100 | > 100 | > 100 | > 100 | > 100 | > 100 | > 100 | > 100 | – | – | – | – | – | – | – | – | – | – |
| O=C(O)CC[P+](c1ccccc1)(c1ccccc1)c1ccccc1 | > 100 | > 100 | > 100 | > 100 | > 100 | 19.9 | 81.8 | > 100 | > 100 | > 100 | – | – | – | – | – | – | – | – | – | – |
